Measured values: PubChem BioAssay AID248 (DTP/NCI, 2004)
Several values for one entry are separate records, joined by “and”; a condition that tells them apart may be missing. Identical values can stand only once. Inconclusive results and toxic doses are left out.

System: L1210 leukemia ip in BDF1 mice, survival T/C
Assay: NCI In Vivo Anticancer Drug Screen. Data for tumor model L1210 Leukemia (intraperitoneal) in B6D2F1 (BDF1) mice
Conditions: endpoint: mean survival time, higher = longer survival
In short: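 Ratio derived from survival: compound-dosed mice over vehicle-dosed mice, all bearing a transplantable tumor.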

[1] = dose: 100.0 mg/kg/injection, schedule: Q01DX009 (ip), vehicle: Klucel (hydroxypropylcellulose) (HPC)
[2] = dose: 100.0 mg/kg/injection, schedule: Q01DX009 (ip), vehicle: saline
[3] = dose: 100.0 mg/kg/injection, schedule: Q04DX002 (ip), vehicle: Klucel (hydroxypropylcellulose) (HPC)
[4] = dose: 200.0 mg/kg/injection, schedule: Q04DX002 (ip), vehicle: Klucel (hydroxypropylcellulose) (HPC)
[5] = dose: 100.0 mg/kg/injection, schedule: Q04DX003 (ip), vehicle: Klucel (hydroxypropylcellulose) (HPC)
[6] = dose: 200.0 mg/kg/injection, schedule: Q01DX009 (ip), vehicle: Klucel (hydroxypropylcellulose) (HPC)
[7] = dose: 200.0 mg/kg/injection, schedule: Q04DX003 (ip), vehicle: Klucel (hydroxypropylcellulose) (HPC)
[8] = dose: 400.0 mg/kg/injection, schedule: Q04DX003 (ip), vehicle: Klucel (hydroxypropylcellulose) (HPC)
[9] = dose: 100.0 mg/kg/injection, schedule: Q01DX001 (ip), vehicle: Klucel (hydroxypropylcellulose) (HPC)
[10] = dose: 200.0 mg/kg/injection, schedule: Q01DX001 (ip), vehicle: Klucel (hydroxypropylcellulose) (HPC)

## Fc1ccc(NC(=S)NCCN2CCCC2)cc1
dose: 25.0 mg/kg/injection, schedule: Q01DX009 (ip), vehicle: Klucel (hydroxypropylcellulose) (HPC)
  T/C: 100 % of control
dose: 50.0 mg/kg/injection, schedule: Q01DX009 (ip), vehicle: Klucel (hydroxypropylcellulose) (HPC)
  T/C: 117 % of control
[1]
  T/C: 100 % of control and 102 % of control

## COC(=O)C1=C(C(=O)OC)C2CC1C1OC21 (stereo not given)
[2]
  T/C: 96 % of control
dose: 200.0 mg/kg/injection, schedule: Q01DX009 (ip), vehicle: saline
  T/C: 98 % of control

## CC(=O)Nc1cccc(N)c1
dose: 25.0 mg/kg/injection, schedule: Q01DX009 (ip), vehicle: saline
  T/C: 95 % of control
dose: 25.0 mg/kg/injection, schedule: Q04DX003 (ip), vehicle: saline
  T/C: 103 % of control
dose: 50.0 mg/kg/injection, schedule: Q01DX009 (ip), vehicle: saline
  T/C: 108 % of control
dose: 50.0 mg/kg/injection, schedule: Q04DX003 (ip), vehicle: saline
  T/C: 97 % of control
[2]
  T/C: 101 % of control
[3]
  T/C: 86 % of control
dose: 100.0 mg/kg/injection, schedule: Q04DX003 (ip), vehicle: saline
  T/C: 94 % of control
[4]
  T/C: 107 % of control

## CC(C)C1CCC(C(=O)O)CC1 (stereo not given)
[1]
  T/C: 102 % of control
[5]
  T/C: 96 % of control
[6]
  T/C: 95 % of control
[7]
  T/C: 100 % of control
dose: 400.0 mg/kg/injection, schedule: Q01DX009 (ip), vehicle: Klucel (hydroxypropylcellulose) (HPC)
  T/C: 97 % of control
[8]
  T/C: 103 % of control

## O=C(c1ccccc1)C12CC3CC(CC(C3)C1)C2
dose: 75.0 mg/kg/injection, schedule: Q04DX003 (ip), vehicle: Klucel (hydroxypropylcellulose) (HPC)
  T/C: 93 % of control
[9]
  T/C: 96 % of control
dose: 150.0 mg/kg/injection, schedule: Q04DX003 (ip), vehicle: Klucel (hydroxypropylcellulose) (HPC)
  T/C: 93 % of control
[10]
  T/C: 100 % of control
dose: 300.0 mg/kg/injection, schedule: Q04DX003 (ip), vehicle: Klucel (hydroxypropylcellulose) (HPC)
  T/C: 106 % of control
dose: 400.0 mg/kg/injection, schedule: Q01DX001 (ip), vehicle: Klucel (hydroxypropylcellulose) (HPC)
  T/C: 105 % of control

## Cc1ccc(NC(=S)Nc2ccccc2)cc1Cl
[3]
  T/C: 106 % of control
[4]
  T/C: 100 % of control
dose: 400.0 mg/kg/injection, schedule: Q04DX002 (ip), vehicle: Klucel (hydroxypropylcellulose) (HPC)
  T/C: 100 % of control

## c1ccc2c(c1)C(=C1c3ccccc3-c3ccccc31)c1ccccc1-2
[9]
  T/C: 104 % of control
[10]
  T/C: 96 % of control

## Clc1cc(Cl)c(I)c(Cl)c1
[1]
  T/C: 95 % of control
[5]
  T/C: 93 % of control
[6]
  T/C: 95 % of control
[7]
  T/C: 95 % of control
[8]
  T/C: 92 % of control

## NC(=O)CCC(NC(=O)OCc1ccccc1)C(=O)NCC(=O)O (stereo not given)
dose: 25.0 mg/kg/injection, schedule: Q04DX002 (ip), vehicle: Klucel (hydroxypropylcellulose) (HPC)
  T/C: 95 % of control
dose: 50.0 mg/kg/injection, schedule: Q04DX002 (ip), vehicle: Klucel (hydroxypropylcellulose) (HPC)
  T/C: 92 % of control
[3]
  T/C: 100 % of control

## CCNC(=O)c1ccc(NC(=O)Nc2ccc(C3=NCCN3)cc2)cc1NC(=O)Nc1ccc(C2=NCCN2)cc1
dose: 37.5 mg/kg/injection, schedule: Q01DX015 (ip), vehicle: water
  T/C: 198 % of control
dose: 46.0 mg/kg/injection, schedule: Q01DX001 (ip), vehicle: water
  T/C: 123 % of control
dose: 50.0 mg/kg/injection, schedule: Q01DX015 (ip), vehicle: water
  T/C: 163 % of control
dose: 62.5 mg/kg/injection, schedule: Q01DX Z (ip), vehicle: water
  T/C: 116 % of control
dose: 93.0 mg/kg/injection, schedule: Q01DX001 (ip), vehicle: water
  T/C: 166 % of control and 189 % of control
dose: 140.0 mg/kg/injection, schedule: Q01DX001 (ip), vehicle: water
  T/C: 171 % of control and 176 % of control and 193 % of control

## C=CCOc1c(Cl)cc(Cl)cc1Cl
dose: 100.0 mg/kg/injection, schedule: Q01DX001 (ip), vehicle: saline
  T/C: 100 % of control
dose: 200.0 mg/kg/injection, schedule: Q01DX001 (ip), vehicle: saline
  T/C: 100 % of control
dose: 400.0 mg/kg/injection, schedule: Q01DX001 (ip), vehicle: saline
  T/C: 100 % of control

## C[N+](C)(Cc1ccccc1)C1c2ccccc2-c2ccc(Cl)cc21 (stereo not given)
dose: 6.25 mg/kg/injection, schedule: Q04DX002 (ip), vehicle: saline with Tween-80
  T/C: 91 % of control
dose: 12.5 mg/kg/injection, schedule: Q04DX002 (ip), vehicle: saline with Tween-80
  T/C: 94 % of control
dose: 25.0 mg/kg/injection, schedule: Q04DX002 (ip), vehicle: saline with Tween-80
  T/C: 88 % of control

## CS(=O)(=O)OCC(=O)NCCNC(=O)COS(C)(=O)=O
dose: 25.0 mg/kg/injection, schedule: Q01DX Z (ip), vehicle: saline
  T/C: 109 % of control
dose: 33.0 mg/kg/injection, schedule: Q01DX Z (ip), vehicle: carboxymethylcellulose (CMC)
  T/C: 113 % of control and 120 % of control
dose: 47.0 mg/kg/injection, schedule: Q01DX Z (ip), vehicle: carboxymethylcellulose (CMC)
  T/C: 122 % of control
dose: 50.0 mg/kg/injection, schedule: Q01DX015 (ip), vehicle: saline
  T/C: 108 % of control and 122 % of control
dose: 50.0 mg/kg/injection, schedule: Q01DX Z (ip), vehicle: carboxymethylcellulose (CMC)
  T/C: 104 % of control
dose: 50.0 mg/kg/injection, schedule: Q01DX Z (ip), vehicle: saline
  T/C: 109 % of control
dose: 50.0 mg/kg/injection, schedule: Q04DX003 (ip), vehicle: carboxymethylcellulose (CMC)
  T/C: 111 % of control
dose: 66.0 mg/kg/injection, schedule: Q01DX Z (ip), vehicle: carboxymethylcellulose (CMC)
  T/C: 106 % of control
dose: 75.0 mg/kg/injection, schedule: Q01DX Z (ip), vehicle: carboxymethylcellulose (CMC)
  T/C: 120 % of control
dose: 100.0 mg/kg/injection, schedule: Q01DX015 (ip), vehicle: saline
  T/C: 114 % of control
dose: 100.0 mg/kg/injection, schedule: Q01DX Z (ip), vehicle: saline
  T/C: 115 % of control
dose: 100.0 mg/kg/injection, schedule: Q04DX003 (ip), vehicle: carboxymethylcellulose (CMC)
  T/C: 110 % of control
dose: 105.0 mg/kg/injection, schedule: Q01DX Z (ip), vehicle: carboxymethylcellulose (CMC)
  T/C: 154 % of control
dose: 115.0 mg/kg/injection, schedule: Q01DX Z (ip), vehicle: carboxymethylcellulose (CMC)
  T/C: 120 % of control
dose: 175.0 mg/kg/injection, schedule: Q01DX Z (ip), vehicle: carboxymethylcellulose (CMC)
  T/C: 118 % of control
dose: 180.0 mg/kg/injection, schedule: Q01DX009 (ip), vehicle: saline
  T/C: 168 % of control
dose: 200.0 mg/kg/injection, schedule: Q04DX003 (ip), vehicle: carboxymethylcellulose (CMC)
  T/C: 119 % of control
dose: 200.0 mg/kg/injection, schedule: Q04DX003 (ip), vehicle: saline
  T/C: 111 % of control
dose: 225.0 mg/kg/injection, schedule: Q01DX Z (ip), vehicle: carboxymethylcellulose (CMC)
  T/C: 92 % of control
dose: 256.0 mg/kg/injection, schedule: Q01DX009 (ip), vehicle: saline
  T/C: 161 % of control and 169 % of control
dose: 400.0 mg/kg/injection, schedule: Q01DX015 (ip), vehicle: saline
  T/C: 162 % of control
dose: 400.0 mg/kg/injection, schedule: Q01DX Z (ip), vehicle: carboxymethylcellulose (CMC)
  T/C: 102 % of control
dose: 400.0 mg/kg/injection, schedule: Q01DX Z (ip), vehicle: saline
  T/C: 105 % of control
dose: 400.0 mg/kg/injection, schedule: Q04DX003 (ip), vehicle: saline
  T/C: 116 % of control
dose: 800.0 mg/kg/injection, schedule: Q04DX003 (ip), vehicle: saline
  T/C: 116 % of control

## NCC(c1ccccc1)C(Cc1ccccc1)[N+](=O)[O-] (stereo not given)
dose: 75.0 mg/kg/injection, schedule: Q01DX001 (ip), vehicle: other
  T/C: 115 % of control
dose: 150.0 mg/kg/injection, schedule: Q01DX001 (ip), vehicle: other
  T/C: 104 % of control

## COc1ccc(/C=C(/C(=O)O)c2ccc(OC)cc2)cc1
dose: 100.0 mg/kg/injection, schedule: Q04DX003 (ip), vehicle: other
  T/C: 98 % of control
dose: 200.0 mg/kg/injection, schedule: Q04DX003 (ip), vehicle: other
  T/C: 95 % of control
dose: 400.0 mg/kg/injection, schedule: Q04DX003 (ip), vehicle: other
  T/C: 95 % of control
